Laboratory results published in patent US7538084B2, “Cyclosporins” (AMR Technology, Inc., priority 2003, dated 2009).

What was measured:
murine splenocytes = experiment: one-way mixed lymphocyte reaction (MLR) assay, murine; assay type: cell-based, mouse
Procedure: (§1) The MLR assay was designed to measure ^3H-thymidine uptake by human lymphocytes or murine splenocytes that are undergoing cell proliferation in an immune response to allogeneic stimulation. The murine system uses the H2 disparate inbred mouse strains: Balb/c (H2^d) and C57B1/6 (H2^b).
Initial screens were done at a fixed value of 100 ng/ml test compound.

human T-lymphocytes = settings: mixed lymphocyte reaction assay in human T-lymphocytes
From the text: as §1

With “Cyclosporin A Methyl Vinyl Ketone (IIIa) [Compound IIIa]” the “IC50 (concentration inhibiting proliferation by 50% relative to control)” value (murine splenocytes; 3H-thymidine uptake, Balb/c responder splenocytes, γ-irradiated C57B1/6 stimulators, 7 point concentration-response curves) was 0.31 µg/mL, the immunosuppressive activity (murine splenocytes; mixed lymphocyte reaction assay in murine splenocytes) was “significant immunosuppressive activity” and the immunosuppressive activity (human T-lymphocytes) was “significant immunosuppressive activity”.
